Measured values taken from US10865397B2, “Recombinant polynucleotide sequence for producing astaxanthin and uses thereof” (ACADEMIA SINICA, priority 2014, dated 2020).

How the values were obtained:
[1] = 3′S, 3′S compared with the 3′R3′R, 3′R stereoisomer; cited from earlier work
Cz30 strain [2] = test: Stress tolerance test: pretreated cells, series dilution on YPG plate
Excerpt: (§1) For the biorefinery application, plant biomass is one of the most abundant renewable resources on earth and is considered an essential building block for developing a sustainable society. Renewable biological resources from plant can be converted into bioproducts, such as biofuels, biochemicals, biolubricants, and biodegradable materials. To utilize the sugars contained in plant biomass, many available treatment techniques, including acid hydrolysis, steam explosion, ammonia fiber expansion, organosolv, sulfite pretreatment, alkaline wet oxidation, ozone pretreatment, and enzyme treatment, are employed for lignocellulose destruction. Toxins produced during acid and steam pretreatment of lignocellulose cover a large range of substances, such as furfural and hydroxymethylfurfural from hemicellulose and cellulose, alcohols and aldehydes from lignin, and heavy metals from bioreactor. Accordingly, the second stress factor examined was furfural treatment.
(§2) WT and Cz30 strains were further tested for ethanol and butanol treatments.

Cz30 strain [3] = tested on: Cz30 strain
Protocol: (§3) After 24 hours, the cells were inoculated into the YPG plate with a series dilution and cultivated for another 48 hours.

WT strain [4] = conditions: 2, 4, or 6% ethanol in YPG medium, 24 hours
Protocol: as §3

WT strain [5] = test: Stress tolerance test: pretreated cells, series dilution on YPG plate; conditions: colonies on plate (FIG. 27B)
Excerpt: as §1, §2

For `CC1=C(/C=C/C(C)=C/C=C/C(C)=C/C=C/C=C(C)/C=C/C=C(C)/C=C/C2=C(C)C(=O)[C@@H](O)CC2(C)C)C(C)(C)C[C@H](O)C1=O` (single isomer, unassigned; stereoisomer 3) [3′S, 3′S stereoisomer, 3′S, 3′S-astaxanthin], the “antioxidant activity of astaxanthin stereoisomers” value [1] is given as “higher antioxidant activity”.
For `CC1=C(/C=C/C(C)=C/C=C/C(C)=C/C=C/C=C(C)/C=C/C=C(C)/C=C/C2=C(C)C(=O)[C@@H](O)CC2(C)C)C(C)(C)C[C@@H](O)C1=O` [3′R3′R, 3′S mesoform, 3′R3′R, 3′S astaxanthin], the “antioxidant activity of astaxanthin stereoisomers” value [1] is listed as “no antioxidant activity”.
For `CC(=O)O[C@@]12CO[C@@H]1C[C@H](O)[C@@]1(C)C(=O)[C@H](O)C3=C(C)[C@@H](O)C[C@@](O)([C@@H](OC(=O)c4ccccc4)[C@H]21)C3(C)C` [10-deacetyl baccatin III], the “colony growth on YPG plate after pretreatment” value (Cz30 strain [2]; 3.2 mM 10-deacetyl baccatin III in 12% ethanol, 24 hours, then 48 hours on plate, Cz30 versus WT) was “Cz30 colonies grew better than WT”, the “damage to cultured yeasts compared with ethanol alone” value (Cz30 strain [3]; 0.8 mM with 4% ethanol or 1.2 mM with 6% ethanol versus 4% or 6% ethanol, WT and Cz30 (FIG. 29B)) was “higher degree of damage” and the “growth in medium containing 10-deacetyl baccatin III” value (Cz30 strain [3]; 0.4-1.2 mM in YPG medium, Cz30 versus WT) was “Cz30 grew better than WT”.
For `CCO` [ethanol], the “colony growth on YPG plate after treatment” value (Cz30 strain [2]) was “Only some Cz30 colonies could grow”, the “cell growth in presence of ethanol” value (Cz30 strain [3]; 2, 4, or 6% ethanol in YPG medium, 24 hours) was “weakly affected” and the “cell growth in presence of ethanol” value (WT strain [4]) was “significantly repressed”.
`O=Cc1ccco1` [furfural] showed a furfural treatment tolerated (Cz30 strain [2]; Cz30 strain, colonies on plate (FIG. 27B)) of 100 mM and a furfural treatment tolerated (WT strain [5]) of 80 mM.
With `CC(C)CO` [isobutanol] the “colony growth on YPG plate after treatment” value (Cz30 strain [2]) was “Only some Cz30 colonies could grow”.
